# In article PMC5449446, “Metabolic Value Chemoattractants Are Preferentially Recognized at Broad Ligand Range Chemoreceptor of Pseudomonas putida KT2440” (Frontiers in Microbiology, 2017):
# Tests used:
# [1] = target: T1, PcaY_PP-LBD (Pseudomonas putida, UniProt Q88JK6); assay: biochemical; assay type: binding, Pseudomonas putida KT2440; settings: for KD: ITC at 25°C, 25 μM protein, One Binding Site model, means and SD of three experiments
# T1 construct: His-tag (from the pET28b vector; inferred from NdeI/BamHI cloning and HisTrap purification) (N); made in house; host or cells: Escherichia coli BL21 (DE3)
# Experimental: Experiments were carried out at 25°C using a VP-ITC titration calorimeter (Microcal Inc., Northampton, Massachusetts). […] Obtained data were corrected with the heat changes measured for the injection of ligand into buffer. Data were normalized with the protein concentration (Bradford assay) and fitted with the “One Binding Site” model of the MicroCal version of the ORIGIN 7.0 software (OriginLab Corporation, Northampton, MA, United States), leaving all parameters floating.
# [2] = target: McpP; set-up: method as in ref (6) (a number printed in a supplementary file, which may have a reference list of its own: not looked up in the article's list); settings: ITC, purified recombinant LBD; ref (6); cited from earlier work
# [3] = target: McpA; set-up: method as in ref (3) (a number printed in a supplementary file, which may have a reference list of its own: not looked up in the article's list); settings: ITC, purified recombinant LBD; ref (3); cited from earlier work
# [4] = target: McpU; set-up: method as in ref (3) (a number printed in a supplementary file, which may have a reference list of its own: not looked up in the article's list); settings: ITC, purified recombinant LBD; ref (3); cited from earlier work
# [5] = target: McpH; set-up: method as in ref (2) (a number printed in a supplementary file, which may have a reference list of its own: not looked up in the article's list); settings: ITC, purified recombinant LBD; ref (2); cited from earlier work
# [6] = target: T1, PcaY_PP-LBD; set-up: species or system Pseudomonas putida KT2440; settings: saturating ligand (400 μM), 10°C
# Experimental: Experiments were performed in a Beckman Coulter Optima XL-A analytical ultracentrifuge (Beckman-Coulter, Palo Alto, CA, United States) equipped with UV-visible absorbance detection system, using an An50Ti 8-hole rotor, 12 mm path-length charcoal-filled epon double-sector centerpieces. The sedimentation velocity (SV) experiments were carried out at a rotor speed of 40,000 rpm and 10°C using 400 μl samples in analysis buffer. […] Analysis buffer with or without ligands was used as reference. […] A least squares boundary modeling of the SV data was used to calculate sedimentation coefficient distributions with the size-distribution c(s) method ([Schuck, 2000]) implemented in the SEDFIT v11.71 software. […] The multi-speed sedimentation equilibrium experiments were carried out at 10°C and 12,000, 14,000, and 18,000 rpm until equilibrium was reached. […] Generally two wavelengths were used per sample.
# [7] = tested on: P. putida KT2440; assay: Growth in M9 minimal medium with ligand as sole C-source; assay type: cell-based, Pseudomonas putida KT2440; settings: 10 mM (2 mM for poorly soluble) ligand
# Experimental: P. putida KT2440R was grown in the same medium supplemented with rifampicin (10 μg ml^-1). […] When necessary, the pH of the medium was adjusted to 7.0 prior to inoculation. Bacterial growth rates were monitored by measuring the OD660 until cultures reached the stationary phase. The growth rate during the exponential growth (m) was calculated according to m = (LnOD2-LnOD1).(t2-t1)^-1, where OD2/t2 and OD1/t1 correspond to the OD660/time at the end and the beginning of the time interval. The generation time (G) was defined by G = Ln2 μ^-1. […] Normalized growth yield per carbon source after 24 h was determined applying correlation factors between cell dry weight and OD660 determined in batch cultures and assuming that all the carbon source was consumed during growth. Data were fitted by linear least squares regression or submitted to the chi-squared test with Yates correction using in both cases the Graph Pad Prism v7.02 software.
# [8] = tested on: Pseudomonas putida KT2440; assay: Quantitative capillary chemotaxis assay; assay type: cell-based; settings: 30 min, wild type KT2440
# Experimental: Subsequently, the cells were re-suspended in the same buffer, adjusted to an OD660 of 0.15 and 230 μl aliquots of this bacterial culture were placed into 96-well plates. For the quantitative assays, one-microliter capillary tubes (Microcaps, Drummond Scientific, Ref. […]) were heat-sealed at one end and filled with either the chemotaxis buffer (negative control) or chemotaxis buffer containing the chemoeffector. The capillaries were immersed into the bacterial suspension and incubated for 30 min at room temperature. Capillaries were subsequently removed from the bacterial suspension, rinsed with sterile water and the content expelled into 1 ml of M9 medium. Serial dilutions were plated onto LB medium (containing the appropriate antibiotics) and the number of colony forming units was determined. In all cases, data were corrected with the number of cells that swam into buffer containing capillaries.
# T1 sequence (Q88JK6 44-196): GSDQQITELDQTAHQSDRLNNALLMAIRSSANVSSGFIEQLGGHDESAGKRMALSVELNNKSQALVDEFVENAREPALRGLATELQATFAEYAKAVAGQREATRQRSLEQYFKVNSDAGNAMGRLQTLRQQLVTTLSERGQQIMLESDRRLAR
structure (smiles),measurement,setting,value
"O=C(O)CCC(=O)O [Succinate, succinate]",KD,[1],did not show any binding
"Nc1ccccc1C(=O)O [2-ABA, 2-Aminobenzoate]",Kd,[1],89 µM
same,∆G,[1]; ITC,-5.52 ± 0.07 kcal/mol
same,∆H,[1]; ITC,-18.0 ± 1.8 kcal/mol
"O=C(O)c1cccc([N+](=O)[O-])c1 [3-NBA, 3-Nitrobenzoate]",Kd,[1],61 µM
same,∆G,[1]; ITC,-5.74 ± 0.06 kcal/mol
same,∆H,[1]; ITC,-17.5 ± 0.3 kcal/mol
"Nc1cccc(C(=O)O)c1 [3-ABA, 3-aminobenzoate]",Kd,[1],138 µM
same,∆G,[1]; ITC,-5.26 ± 0.07 kcal/mol
same,∆H,[1]; ITC,-16.4 ± 1.2 kcal/mol
CCC(=O)O [Propionate],Kd,[2],34 µM
N[C@@H](Cc1ccc(O)cc1)C(=O)O [L-Tyr],Kd,[3],12.1 µM
"O=C(O)CC(O)C(=O)O (stereo not drawn) [Malate, malate]",KD,[1],did not show any binding
NCCCCCN [Cadaverine],Kd,[4],22 µM
"COc1cc(C=O)ccc1O [Vanillin, vanillin]",KD,[1],No binding
same,KD,[1]; listed as vanillin,absence of binding
Nc1ncnc2[nH]cnc12 [Adenine],Kd,[5],2.4 µM
CC(=O)C(=O)O [Pyruvate],Kd,[2],39 µM
"O=C(O)c1cccc(Cl)c1 [3-CBA, 3-chlorobenzoate]",Kd,[1],34 µM
same,∆G,[1]; ITC,-6.09 ± 0.03 kcal/mol
same,∆H,[1]; ITC,-13.2 ± 0.3 kcal/mol
CC[C@H](C)[C@H](N)C(=O)O [L-Ile],Kd,[3],85 µM
N[C@@H](CS)C(=O)O [L-Cys],Kd,[3],0.6 µM
O=C(O)c1ccccc1[N+](=O)[O-] [2-NBA],KD,[1],No binding
"O=C(O)[C@]1(O)C[C@@H](O)[C@@H](O)[C@H](O)C1 [Quinate, quinate]",Kd,[1],3.7 µM
same,∆G,[1]; ITC,-7.40 ± 0.02 kcal/mol
same,∆H,[1]; ITC,-13.2 ± 0.4 kcal/mol
same,"sedimentation coefficient s20,w of PcaY_PP-LBD in presence of ligand",[6],3.1 S
same,capacity to support growth as sole carbon source,[7],supported bacterial growth
same,chemotactic response,[8],very strong responses
"O=C(O)c1ccc(O)c(O)c1 [Protocatechuate, protocatechuate]",Kd,[1],6.4 µM
same,∆G,[1]; ITC,-7.08 ± 0.04 kcal/mol
same,∆H,[1]; ITC,-22.9 ± 1.2 kcal/mol
same,capacity to support growth as sole carbon source,[7],supported bacterial growth
same,chemotactic response,[8],much weaker
CSCC[C@H](N)C(=O)O [L-Met],Kd,[3],5.8 µM
O=c1[nH]c(=O)c2nc[nH]c2[nH]1 [Xanthine],Kd,[5],2.7 µM
NC(=O)CC[C@H](N)C(=O)O [L-Gln],Kd,[3],5.5 µM
O=c1[nH]cnc2nc[nH]c12 [Hypoxanthine],Kd,[5],3.3 µM
"O=C(O)c1ccccc1O [2-HBA, 2-hydroxybenzoate]",Kd,[1],24 µM
same,∆G,[1]; ITC,-6.30 ± 0.03 kcal/mol
same,∆H,[1]; ITC,-21.0 ± 0.6 kcal/mol
same,chemotactic response,[8],much weaker
O=c1[nH]c(=O)c2[nH]c(=O)[nH]c2[nH]1 [Uric acid],Kd,[5],1.3 µM
NCCCCNCCCN [Spermidine],Kd,[4],4.5 µM
NC(=O)C[C@H](N)C(=O)O [L-Asn],Kd,[3],4.3 µM
NCC(=O)O [Gly],Kd,[3],35 µM
CC(C)[C@H](N)C(=O)O [L-Val],Kd,[3],373 µM
"O=C(O)c1ccc(O)cc1 [4-HBA, 4-hydroxybenzoate]",Kd,[1],7.2 µM
same,increase in affinity as compared to benzoate,[1]; ITC,around 12 fold
same,∆G,[1]; ITC,-7.01 ± 0.08 kcal/mol
same,∆H,[1]; ITC,-33.2 ± 1.4 kcal/mol
same,capacity to support growth as sole carbon source,[7],supported bacterial growth
c1ncc2nc[nH]c2n1 [Purine],Kd,[5],2.4 µM
"O=C(O)c1ccc([N+](=O)[O-])cc1 [4-NBA, 4-Nitrobenzoate]",Kd,[1],50 µM
same,∆G,[1]; ITC,-5.86 ± 0.06 kcal/mol
same,∆H,[1]; ITC,-13.8 ± 1.2 kcal/mol
"O=C(O)C1=CC(=O)C(O)C(O)C1 (stereo not drawn) [3-Dehydroshikimate, 3-dehydroshikimate]",Kd,[1],6 µM
same,∆G,[1]; ITC,-7.11 ± 0.03 kcal/mol
same,∆H,[1]; ITC,-19.9 ± 0.3 kcal/mol
same,capacity to support growth as sole carbon source,[7],supported bacterial growth
NCCCCN [Putrescine],Kd,[4],2 µM
"O=C(O)CCCCC(=O)O [Adipate, adipate]",KD,[1],No binding
same,KD,[1]; listed as adipate,No binding heats
N=C(N)NCCC[C@H](N)C(=O)O [L-Arg],Kd,[3],1.2 µM
"O=C(O)c1ccccc1 [Benzoate, benzoate]",Kd,[1],90 ± 8 µM
same,∆G,[1]; ITC,-5.51 ± 0.06 kcal/mol
same,∆H,[1]; ITC,-13.3 ± 0.5 kcal/mol
same,capacity to support growth as sole carbon source,[7],supported bacterial growth
same,chemotactic response,[8],much weaker
"Cc1ccc(C(=O)O)cc1 [4-MBA, 4-Methylbenzoate]",Kd,[1],41 µM
same,∆G,[1]; ITC,-5.97 ± 0.12 kcal/mol
same,∆H,[1]; ITC,-13.2 ± 0.9 kcal/mol
C[C@H](O)C(=O)O [L-lactate],Kd,[2],107 µM
"O=C(O)C1=CC(O)C(O)C(O)C1 (stereo not drawn) [Shikimate, shikimate]",Kd,[1],4.4 µM
same,∆G,[1]; ITC,-7.30 ± 0.1 kcal/mol
same,∆H,[1]; ITC,-16.6 ± 1.1 kcal/mol
same,"sedimentation coefficient s20,w of PcaY_PP-LBD in presence of ligand",[6],3.1 S
same,chemotactic response,[8],very strong responses
"Cc1cccc(C(=O)O)c1 [3-MBA, 3-Methylbenzoate]",Kd,[1],32 µM
same,∆G,[1]; ITC,-6.12 ± 0.04 kcal/mol
same,∆H,[1]; ITC,-21.9 ± 1.1 kcal/mol
Nc1nc2nc[nH]c2c(=O)[nH]1 [Guanine],Kd,[5],4.3 µM
"O=Cc1ccc(O)cc1 [4-Hbenzaldehyde, 4-hydroxybenzaldehyde]",KD,[1],No Binding
same,KD,[1]; listed as 4-hydroxybenzaldehyde,devoid of binding
C[C@H](N)C(=O)O [L-Ala],Kd,[3],13 µM
N[C@@H](Cc1ccccc1)C(=O)O [L-Phe],Kd,[3],2.3 µM
Cc1ccccc1C(=O)O [2-MBA],KD,[1],No binding
"O=C(O)c1cccc(O)c1 [3-HBA, 3-hydroxybenzoate]",KD,[1],No Binding
"O=C(O)c1ccccc1Cl [2-CBA, 2-chlorobenzoate]",KD,[1],No binding
same,chemotactic response,[8],did not induce a chemotactic response
"Nc1ccc(C(=O)O)cc1 [4-ABA, 4-aminobenzoate]",Kd,[1],98 µM
same,∆G,[1]; ITC,-5.46 ± 0.12 kcal/mol
same,∆H,[1]; ITC,-11.0 ± 0.4 kcal/mol
same,chemotactic response,[8],much weaker
"COc1cc(C(=O)O)ccc1O [Vanillate, vanillate]",Kd,[1],11 µM
same,∆G,[1]; ITC,-6.70 ± 0.03 kcal/mol
same,∆H,[1]; ITC,-12.8 ± 1.7 kcal/mol
N[C@@H](CO)C(=O)O [L-Ser],Kd,[3],43 µM
